# Assay results from patent US4105768A, “Hypotensive substituted 1,2,4-triazoles” (priority 1973, dated 1978).
# Read-outs that look alike come from different tables or passages of the source.
# Columns and labels:
# anaesthetized rats = type: in vivo, rat
# [1] = Effect on the spontaneous motor activity of mice; type: in vivo, mouse; conditions: mouse, in vivo, ip, read-out: Intraperitoneal dose which reduced the spontaneous motor activity of mice to 50 % of control values; for ED50 at 1 h: measurements one hour after administration; for ED50 at 3 h: measurements three hours after administration
# Description: (§1) The effect on the spontaneous motor activity was tested in mice. Groups of six animals were given the test compounds intraperitoneally one and three hours before test. The animals were placed individually in an activity meter and the activity was recorded for ten minutes. The dose which reduced the spontaneous motor activity to 50 percent of that of control mice was calculated.
# mice = experiment: Effect on the spontaneous motor activity of mice; type: in vivo, mouse; conditions: i.p., mice; compared to Wy-8678
# Description: as §1
# [2] = tested on: spontaneously hypertensive rats of the SHR/N strain; experiment: Antihypertensive effect in spontaneously hypertensive rats, oral; type: in vivo; conditions: Rattus norvegicus, 3 h; three consecutive daily oral doses; measured before and three hours after administration; unanesthetized SHR/N rats; read-out: effective antihypertensive dose, defined as the dose which reduced the mean arterial blood pressure more than 30 mm Hg
# Description: The antihypertensive effects of the hydrochloride salt of the compound of the invention with the designation FLA 486 having the formula [drawing 25] have been compared with those of FLA 136 with the formula [drawing 26] in spontaneously hypertensive rats of the SHR/N strain (Mollegaard Hansens Avlslaboratorier A/S, Denmark). The animals were prepared for measurements of the arterial blood pressure through a catheter implanted into the abdominal aorta and exteriorized at the base of the neck. Groups of two rats were given three consecutive daily oral doses of the test compounds. Measurements were performed before and three hours after administration to the unanesthetized animal. The effective antihypertensive dose of FLA 486, defined as the dose which reduced the mean arterial blood pressure more than 30 mm Hg was 5-10 mg/kg. The corresponding value for FLA 136 was 5-10 mg/kg.
# renal hypertensive rats = experiment: Antihypertensive effect (mean arterial blood pressure) in unanaesthetized renal hypertensive rats, oral; type: in vivo, rat; conditions: for Minimum daily oral dose with antihypertensive effects defined as the dose which reduced the mean arterial blood pressure more than 15 mm Hg in unanaesthetized renal hypertensive rats: three consecutive daily oral doses, measured before and three hours after administration
# Description: The antihypertensive effects were tested in rats in which high blood pressure had been produced by removal of one kidney and restricting the blood flow to the remaining one two months before the experiments. The animals were prepared for measurements of the arterial blood pressure through a catheter implanted into the abdonimal aorta and exteriorized at the base of the neck. Groups of two rats were given three consecutive daily oral doses of the test compounds from the scale: 2.5, 5, 10, 20, and 40 mg/kg. Measurements were performed before and three hours after administration to the unanaesthetized animal. The minimum daily oral dose with antihypertensive effect was defined as the dose which reduced the mean arterial blood pressure more than 15 mm Hg.
# [3] = Acute toxicity in mice (LD50 i.p.); conditions: mouse, in vivo, ip
SMILES,"initial rise in blood pressure (anaesthetized rats; rat, in vivo, iv, 40 mg/kg)",ED50 at 1 h [1] [mg/kg],ED50 at 3 h [1] [mg/kg],sedative effects (in words) (mice),minimal effective dose [2] [mg/kg],"antihypertensive effect (in words) (renal hypertensive rats; oral, compared with Wy-8678)",Minimum daily oral dose with antihypertensive effects defined as the dose which reduced the mean arterial blood pressure more than 15 mm Hg in unanaesthetized renal hypertensive rats (renal hypertensive rats) [mg/kg],LD50 [3] [mg/kg],"initial rise in blood pressure (anaesthetized rats; intravenous, consecutive increasing doses, anaesthetized rats, highest dose tested of test compound 40 mg/kg)"
"Cl.Nn1cnnc1NN=Cc1c(Cl)cccc1Cl [FLA 136, 4-Amino-3-(2,6-dichlorobenzylidenehydrazino)-1,2,4-triazole hydrochloride]",did not produce an initial rise in blood pressure even at 40 mg/kg,90,170,lack of sedative effects,5 to 10,of the same degree as that of one of the present known most active hypotensive compounds,2.5 to 5,340,
CNn1cnnc1NN=Cc1c(Cl)cccc1Cl [FLA 486],,,,,5 to 10,,,,
"NC(N)=NN=Cc1c(Cl)cccc1Cl [Wy-8678, reference compound]",,3,3,,,,2.5,70,produced a large increase in arterial pressure even at doses as low as 0.01 mg/kg
